In one data set the test system is HHV-6. Description: HHV-6 ELISA in HSB-2 cells. The format is cell-based, human herpes virus 6 (HHV 6). As to the method:
(c) HHV-6. In this case, enzyme-linked immunosorbent assay (ELISA) was performed in covalent amine plates (Costar, Cambridge, Mass.). The plates were activated by the addition of a homobifunctional crosslinking agent, bis(sulfosuccinimidyl) suberate, which was dissolved at 1 mg/mL in 30 mL of phosphate buffered saline (PBS: 137 mM NaCl, 2.7 mM KCl, 4.3 mM Na2HPO4, 1.4 mM KH2PO4, pH 7.4) and 300 μL of the crosslinker was added to each well in the covalent plate. The crosslinker reacted with the amine function on the plate for 30 min at room temperature. The byproduct, sodium N-hydroxysuccinimide sulfite, was removed by decanting and washing the plate twice with PBS. Samples consisting of 150 μl of mixed suspended HSB2 cells from the original drug-treated plate were solubilized in an equal volume of 10% Triton X-100 in coating buffer (15 mM Na2CO3, […] NaHCO3, pH 9.6). The plate was covered and then incubated for 1 h at 37° C. in a 5% CO2 atmosphere. These binding conditions facilitated covalent attachment of the antigen to the free end of the crosslinker.
After covalent binding, the antigen solution was decanted and the plate was washed six times in HEPES buffered saline (Shipman, C., Jr., Proc. Soc. Exp. Biol. 130:305-310 (1969)) with 0.05% Tween 20 (HBS-T ), soaking for three min for each wash. […] Absorbance in each well was determined at 450/570 nm.
(In an ELISA, binding on a coated surface is turned into a signal by an enzyme label.)

The test system of the next data set is KB cells. Description: Cytotoxicity in KB cells, growth over two population doublings. The format is cell-based. The protocol:
Cells and viruses. The routine growth and passage of KB cells was performed in monolayer cultures using minimal essential medium (MEM) with either Hanks salts [MEM(H)] or Earle salts [MEM(E)] supplemented with 10% calf serum. The sodium bicarbonate concentration was varied to meet the buffering capacity required. Cultures of diploid human foreskin fibroblasts (HFF) or MRC-5 cells were grown in medium consisting of MEM(E) with 10% fetal bovine serum. Cells were passaged at 1:2 to 1:10 dilutions according to conventional procedures by using 0.05% trypsin plus 0.02% EDTA in a HEPES buffered salt solution (HBS) (Shipman, C., Jr., Proc. Soc. Exp. Biol. 130:305-310 (1969)) as described previously. Turk, S. R., et al., Antimicrob. Agents Chemother. 31:544-550 (1987). HFF and MRC-5 cells were passaged only at 1:2 dilutions. CEM cells were maintained in suspension culture as detailed previously. Kucera, L. S., et al., AIDS Res. Human Retroviruses 9:307-314 (1993).
Cytotoxicity assays. Two different assays were used to explore cytotoxicity of selected compounds as we have detailed previously. (i) Cytotoxicity produced in stationary HFF cells and in growing CEM cells was determined by microscopic inspection of cells used in plaque and RT assays which were not affected by the virus. Turk, S. R., et al., Antimicrob. Agents Chemother. 31:544-550 (1987). (ii) The effect of compounds during two population doublings of KB cells was determined by crystal violet staining and spectrophotometric quantitation of dye eluted from stained cells. Prichard, M. N., et al., Antimicrob. Agents Chemother. 35:1060-1065 (1991).
Data Analysis. Dose-response relationships were constructed by linearly regressing the percent inhibition of parameters derived in the preceding sections against log drug concentrations. Fifty-percent inhibitory (IC50) concentrations were calculated from the regression lines. Samples containing positive controls (acyclovir for HSV-1, ganciclovir for HCMV, and 2-acetylpyridine thiosemicarbazone for cytotoxicity) were used in all assays.

IC50 data for 1 compound are collected here from patent US6958345B2, “2-hydroxymethylcyclopropylidene methylpurines and -pyrimidines as antiviral agents” (The Regents of the University of Michigan, priority 1997, dated 2005).

For `Nc1ncnc2c1ncn2C=C1CC1CO` (stereo not drawn) [1 (B = adenine), Example 5, syn-N^9-(2-hydroxymethylcyclopropylidenemethyl)adenine], the IC50 in the data set on HHV-6 was determined as 3 µM; in the data set on KB cells it was 82 µM.

A word on the IC50: it is the concentration that inhibits the measured activity by half. Low readings indicate greater potency, high ones weaker potency.
